Measured values as given in patent publication EP0641792A1, “1,2-Dithiole derivatives and therapeutic agents containing them” (MITSUI TOATSU CHEMICALS, Inc., priority 1993, dated 1995).

Key:
Male SD rats [1] = test: Inhibitory action for disappearance of enzyme in myocardial cells after ischemia and reperfusion (Evaluation Example 6); type: in vivo, rat; conditions: for Mortality (%) / CPK activity (U/mg protein) (Non-ischemia territory)-(ischemia and reperfusion territory): 1.0 mg/kg intravenously, ligation 20 minutes, reperfusion 2 hours; for CPK activity (U/mg protein) (Non-ischemia territory)-(ischemia and reperfusion territory): left ventricle, average value ± standard error
Description: Male SD rats of 7-12 week age were anesthetized with pentobarbital and subjected to thoracotomy under artificial respiration. The left anterior descending coronary artery of each rat was ligated for 20 minutes and then subjected to reperfusion for 2 hours. Then, the heart of each rat was enucleated and the left ventricle was separated. The left ventricle was homogenized to measure the activity of creatine phosphokinase (CPK) remaining in the ventricle. Each test compound was intravenously administered 5 minutes before the obstruction of coronary artery. For comparison, the same evaluation was conducted also on the 4-(4-methoxy-3-sulfophenyl)-5-phenyl-3H-1,2-dithiole-3-thione sodium salt described in Bull. […] Chim. […] In Table 18 are shown the differences in CPK activity between non-ischemia territory and ischemia and reperfusion territory of left ventricle, of test compounds and control.
In Table 18, CPK activity indicates (average value ± standard error), and n indicates the number of tested rats.

Male SD rats [2] = test: Inhibitory action of reperfusion arrhythmia (Evaluation Example 5; coronary artery ligation 5 minutes, reperfusion 10 minutes); type: in vivo, rat; conditions: 1.0 mg/kg intravenously 5 minutes before obstruction of coronary artery
Description: (§1) Male SD rats of 8-12 week age were anesthetized with pentobarbital and subjected to thoracotomy under artificial respiration. The left anterior descending coronary artery of each rat was ligated for 5 minutes and then subjected to reperfusion for 10 minutes. An electrocardiograph in standard bipolar limb lead II was recorded for each rat to examine the occurrence of ventricular arrhythmia. Each test compound was intravenously administered 5 minutes before the obstruction of coronary artery. For comparison, the same evaluation was conducted also on the 5-(4-methoxy-3-sulfophenyl)-3H-1,2-dithiole-3-thione sodium salt described in Eur. J. Med. Chem. 15, 405 (1980). [drawing 95]

peroxylipid [3] = test: Inhibitory action for formation of peroxylipid (Evaluation Example 4; MDA, thiobarbituric acid method); type: biochemical; conditions: rat brain homogenate, 37°C for 60 minutes; test compound 10⁻⁴ M; n=2
Description: (§2) Male SD rats of 7-10 week age were anesthetized with pentobarbital and then subjected to dehematization. Thereafter, their brains were enucleated. The brain tissues were homogenized with a phosphate buffer solution with ice-cooling. Each of the 5% homogenates was incubated at 37°C for 60 minutes to form malondialdehyde (MDA). The amount of MDA was determined by measuring the absorbance at 535 nm according to the thiobarbituric acid method. Using this MDA amount (a) and a control value (b) (a MDA amount when no test compound was added), the inhibition (%) for formation of peroxylipid, of test compound was calculated from the following formula. Inhibition (%) for formation of peroxylipid = [(b-a)/b]x100 [formula] Each test compound was added to the homogenate before the incubation.
(§3) Incidentally, the concentration of each test compound was 10⁻⁴ M, and the number of rats used for each test compound was n=2.

Male SD rats [4] = test: Inhibitory action for reperfusion arrhythmia (Evaluation Example 2; coronary artery ligation 5 minutes, reperfusion 10 minutes); type: in vivo, rat; conditions: 1.0 mg/kg intravenously 5 minutes before obstruction of coronary artery
Description: as §1, with “A” for “Each”, “93]” for “95]”

peroxylipid [5] = test: Inhibitory action for formation of peroxylipid (Evaluation Example 1; MDA, thiobarbituric acid method); type: biochemical; conditions: rat brain homogenate, 37°C for 60 minutes; test compound 10⁻⁴ M; n=2
Description: as §2, §3

[6] = Solubility in water (Test Example 1); type: physicochemical; conditions: 5% aqueous glucose solution, saline or isotonic
Description: (§4) Solubility in 5% aqueous glucose solution was measured.

Male SD rats [7] = test: Inhibitory action for disappearance of enzyme in myocardial cells after ischemia and reperfusion (Evaluation Example 3); type: in vivo, rat; conditions: 1.0 mg/kg intravenously; ligation 20 minutes, reperfusion 2 hours; left ventricle; average value ± standard error
Description: Male SD rats of 7-12 week age were anesthetized with pentobarbital and subjected to thoracotomy under artificial respiration. The left anterior descending coronary artery of each rat was ligated for 20 minutes and then subjected to reperfusion for 2 hours. Then, the heart of each rat was enucleated and the left ventricle was separated. The left ventricle was homogenized to measure the activity of creatine phosphokinase (CPK) remaining in the ventricle. A test compound was intravenously administered 5 minutes before the obstruction of coronary artery. In Table 15 are shown the differences in CPK activity between non-ischemia territory and ischemia and reperfusion territory of left ventricle, of test compound and control.
In Table 15, CPK activity indicates (average value ± standard error), and n indicates the number of tested rats.

[8] = Solubility in water (Test Example 2); type: physicochemical; conditions: 5% aqueous glucose solution, saline or isotonic
Description: as §4

Row | SMILES | Mortality (%) (Male SD rats [2]) | VF incidence (VF rats)/(tested rats) (%) (Male SD rats [2]) | Inhibition (%) (peroxylipid [3]) | Mortality (%) (Male SD rats [1]) | CPK activity (U/mg protein) (Non-ischemia territory)-(ischemia and reperfusion territory) (Male SD rats [1]) | Inhibition (%) (peroxylipid [5]) | solubility [6] | other results
1 | COc1ccc(-c2c(-c3ccccc3)ssc2=S)cc1S(=O)(=O)[O-].[Na+] [Compound in literature, 4-(4-methoxy-3-sulfophenyl)-5-phenyl-3H-1,2-dithiole-3-thione sodium salt, reference compound] | – | – | – | – | – | – | – | effect on disappearance of creatine phosphokinase from myocardial cells and on rat mortality (Male SD rats [1]; result in words, versus control): no significant effect
2 | O=S(=O)([O-])c1ccc(Cc2c(-c3ccccc3)ssc2=S)cc1.[Na+] [Production Example 39, 5-phenyl-4-(4-sulfobenzyl)-3H-1,2-dithiole-3-thione sodium salt] | 0/4 (0.0) % | 1/4 (25.0) % | 100% | 12.5% | 0.84 ± 0.18 (n=8) U/mg protein | – | – | –
3 | COc1cc2c(cc1S(=O)(=O)[O-])-c1ssc(=S)c1CC2.[Na+] [Production Example 4, 4,5-dihydro-7-methoxy-8-sulfo-3H-naphtho[1,2-c]-1,2-dithiole-3-thione sodium salt] | – | – | – | – | – | 100% | ≥ 10000 µg/mL | Mortality (%) (Male SD rats [4]): 2/5 (40.0) %; VF incidence (VF rats)/(tested rats) (%) (Male SD rats [4]): 2/5 (40.0) %; CPK activity (U/mg protein) (Non-ischemia territory)-(ischemia and reperfusion territory) (Male SD rats [7]): 1.36 ± 0.34 (n=7) U/mg protein
4 | O=S(=O)([O-])c1ccc2c(c1)-c1ssc(=S)c1CO2.[Na+] [Production Example 13, 8-sulfo-3H,4H-benzopyrano[4,3-c]-1,2-dithiole-3-thione sodium salt] | – | – | – | – | – | 100% | ≥ 10000 µg/mL | –
5 | CCCCCCc1ssc(=S)c1Cc1ccc(OC)c(S(=O)(=O)[O-])c1.[Na+] [Production Example 26, 5-hexyl-4-(4-methoxy-3-sulfobenzyl)-3H-1,2-dithiole-3-thione sodium salt] | 2/6 (33.3) % | 3/6 (50.0) % | 100% | 33.3% | 0.70 ± 0.23 (n=9) U/mg protein | – | – | solubility [8]: ≥ 10000 µg/mL
6 | COc1cc2c(cc1S(=O)(=O)[O-])CCc1c-2ssc1=S.[Na+] [Production Example 3, 4,5-dihydro-8-methoxy-7-sulfo-3H-naphtho-[1,2-c]-1,2-dithiole-3-thione sodium salt] | – | – | – | – | – | 100% | ≥ 10000 µg/mL | –
7 | CCOc1cc2c(cc1S(=O)(=O)[O-])-c1ssc(=S)c1CC2.[Na+] [Production Example 5, 4,5-dihydro-7-ethoxy-8-sulfo-3H-naphtho-[1,2-c]-1,2-dithiol-3-thione sodium salt] | – | – | – | – | – | 100% | ≥ 10000 µg/mL | –
8 | COc1cc2c(cc1S(=O)(=O)[O-])OCc1c-2ssc1=S.[Na+] [Production Example 12, 8-methoxy-7-sulfo-3H,4H-benzopyrano-[4,3-c]-1,2-dithiole-3-thione sodium salt] | – | – | – | – | – | 100% | ≥ 10000 µg/mL | –
9 | COc1ccc(-c2c(-c3ccc(C)cc3)ssc2=S)cc1S(=O)(=O)[O-].[Na+] [Production Example 34, 4-(4-methoxy-3-sulfophenyl)-5-(p-tolyl)-3H-1,2-dithiole-3-thione sodium salt] | 2/7 (28.6) % | 3/7 (42.9) % | 100% | 40.0% | 0.81 ± 0.43 (n=10) U/mg protein | – | – | solubility [8]: ≥ 10000 µg/mL
